Experimental data as given in PMC9848421, “Increased brain uptake of pterostilbene loaded folate modified micellar delivery system” (Drug Delivery, 2022).

Tests used:
[1] = test system: red blood cells (RBCs); experiment: In vitro hemolysis assay; assay type: cell-based, SD rats; conditions: 37 °C, 1 h
Description: The hemocompatibility of F-Pt/M was investigated by hemolysis assay (Valenzuela-Oses et al., [2017]). Fresh SD rats blood was diluted by physiological saline, and red blood cells (RBCs) were collected by centrifugation at 1,200 rpm for 5 min. Following carefully washing and diluting, RBC suspension in normal saline (v/v, 2%) was prepared for hemolysis study. Pt loaded F-Pt/M and free Pt at different drug concentrations were added and mixed by vortex. Then, the samples were incubated at 37 °C for 1 h and after that were centrifuged at 3,000 rpm for 10 min. The supernatant was collected and spectrophotometrically measured on a microplate plate reader (Varioskan LUX, Thermo Scientific Inc., Vantaa, Finland) at 540 nm. Double distilled water and normal saline were employed as positive and negative control, respectively. The hemolysis ratio (HR) of RBCs was calculated using the following equation: (4) HR (%) = (As– A0)/(A100– A0) × 100
Where, As is the absorbance of sample, A0 is the absorbance of negative control and A100 is the absorbance of positive control.

[2] = test system: A172 cells; experiment: In vitro cytotoxicity assay (CCK-8); assay type: cell-based; conditions: Homo sapiens, A 172, 48 h incubation
Description: Human glioblastoma A172 cells (Nanjing KeyGen Biotech Co., Ltd., Nanjing, China) which overexpress folate receptor (Weitman et al., [1992]) were used. Cells were routinely cultured in DMEM medium (Invitrogen, Grand Island, NY, USA) supplemented with 10% fetal bovine serum (Gibco Life Science, Grand Island, NY, USA) and 1% streptomycin/penicillin in a humidified atmosphere of 5% CO2 at 37 °C. Cell passages were carried out according to the manufacturer’s instructions.
To evaluate the inhibitory effects of Pt in various formulations on A172 cells, cytotoxicity assay was carried out with CCK-8 kits. Cells were seeded into 96-well plates at a density of 5,000 cells per well, followed by incubation for 24 h. Cells were treated with free Pt solution (free Pt), Pt loaded micelles (Pt/M), folate modified Pt loaded micelles (F-Pt/M) and blank micelles (BM) at equivalent drug concentrations ranging from 5 μM to 100 μM and further incubated for 48 h. […] After 2 h of incubation at 37 °C, the absorbance intensity was measured by a microplate reader (Varioskan LUX; Thermo Scientific Inc., Vantaa, Finland) at 450 nm. Cell viability was calculated by the ratio between the fluorescence absorbance of the cells treated with various Pt formulations (or blank micelles) and that of the cells incubated with the culture medium only. The IC50 values were calculated by using SPSS 22.0 (IBM Corp., Armonk, NY).

[3] = design: method as in Liu et al., 2020; conditions: crude Pt; ref Liu et al., 2020; cited from earlier work
[4] = Brain targeting and brain distribution study in rats; assay type: in vivo, SD rats; conditions: single i.v. 3 mg/kg; for Cmax / Tmax / half-life: male, SD, rat, iv
Description: Male SD rats weighing 200–250 g (Experimental Animal Center of Dalian Medical University, China) were maintained in standard conditions on a 14 h light/10 h dark cycle provided with food and water ad libitum prior to experimental procedures. All animal experimental protocols were conducted with an approval by the Institutional Animal Care and Use Committee at Dalian Medical University, Dalian, China (Ethics Committee approval number: SCXK 2018-0003) as well as in accordance with the recommendations and policies of the National Institutes of Health (NIH) guide for the care and use of laboratory animals (NIH Publications No. 8023, revised 1978).
Rats were randomly divided into two groups of 24 animals each. Each group received either freshly prepared control free Pt solution in DMSO (10%) in saline solution or formulation of F-Pt/M at a dose equivalent to 3 mg/kg of drug intravenously through lateral tail vein. From each group, three rats were sacrificed at intervals of 5, 15, 30, 45, 60, 90, 120 and180 min post dose. At each time point, blood sample was withdrawn and centrifuged at 3,500 rpm at 4 °C for 10 min. At the same time, the brain sample was harvested, weighed, and homogenized in PBS after cardiac perfusion with 0.9% normal saline solution. Samples were stored at −80 °C until analysis.
Pt from both brain and plasma samples was extracted by liquid-liquid extraction method. Briefly, 20 µL of internal standard working solution (resveratrol, 250 ng/ml) was added to 200 µL aliquot of plasma or brain sample. After 30 seconds of vortexing, 1 mL of extraction solvent, methyl tertiary butyl ether (MTBE) was added. Afterwards, the sample was mixed for 1 min plus centrifugation at 1,000 rpm for 5 min, the supernatant organic layer was carefully transferred and dried using nitrogen gas with gentle heat at 40 °C. The residue was reconstituted with 400 µL of mobile phase and centrifuged at 12,000 rpm for 10 min. The supernatant was transferred to an auto-sampler vial and 10 µL was then injected into the LC-MS/MS system for analysis. An LC-MS/MS analysis method reported by Ferrer (Ferrer et al., [2005]) was employed for the determination of Pt concentration.
Pharmacokinetic parameters, such as Cmax (maximum drug concentration), Tmax (the time to Cmax) and AUC0-t (area under plasma concentration-time curve), were calculated by DAS 2.0 (Drug and Statistics ver 2.0, China). To examine the blood-brain barrier penetration (P) of Pt, the following formula was employed (Yang et al., [2021]): (5) P=AUCbrain/AUCplasma
For brain targeting evaluation, DTI (drug targeting index) was determined using the following equation (Katekar et al., [2020]): (6) DTI = (AUCbrain/AUCplasma)test/(AUCbrain/AUCplasma)control

[5] = In vitro drug release by dialysis method; assay type: physicochemical; conditions: PBS pH 7.4 containing 0.3% Tween 80
Description: With free Pt acetone solution as control, in vitro release of Pt from F-Pt/M formulation was studied by the dialysis method (Khan et al., [2020]; Rubab et al., [2021]; Yang et al., [2021]). Briefly, 1 mL of samples, equivalent to 0.8 mg drug, were filled into dialysis bags (molecular weight cutoff: 3500 Da) and dialyzed against 1,000 mL of phosphate buffer solution of pH values 7.4 (containing 0.3% Tween 80) to mimic drug release in normal tissues/blood. At the desired time intervals, 1 mL of release medium was withdrawn and replaced with 1 mL of fresh medium. The amount of released Pt was measured by spectrophotometer (Thermo Scientific Inc., Finland) with excitation wavelength at 330 nm and emission wavelength at 374 nm.
In order to understand the kinetic model of Pt release from F-Pt/M, zero-order, first-order and Higuchi models were fitted, and the highest adjusted R^2 value was used as the criterion for model selection.

## COc1cc(/C=C/c2ccc(O)cc2)cc(OC)c1 [free Pt, 3,5-dimethoxy-4′-hydroxy-trans-stilbene]
[1]; high concentration of 0.5 mg/mL
  HR (hemolysis ratio): 11.23%
[1]; low concentration of 0.17 mg/mL
  HR (hemolysis ratio): 6.46%
[1]; medium concentration of 0.33 mg/mL
  HR (hemolysis ratio): 10.39%
[2]
  IC50: 24.4 µM
[3]
  solubility in water: about 21 µg/mL
[4]; brain
  AUC0-t: 4369.66 ± 289.88 µg·min/L
  Cmax: 78.1 ± 13.9 ng/mL
  Tmax: 35 min
  half-life: 22.4 ± 2.84 min
[4]; plasma
  Cmax: 221 ± 21.6 ng/mL
  Tmax: 5 min
  half-life: 114 ± 29.2 min
  AUC0-t: 10107.80 ± 976.65 µg·min/L
[5]
  time over which the drug was released: ≤ 5 h
